Experimental data from patent US6017715A (priority 1996, dated 2000).
≈ marks a conversion by molar mass, not a printed value.

Test system: Ceriodaphnia
Details: in vivo; for LC50 value: ceriodaphnia, 48 h

Structure (SMILES) | LC50 value [ng/mL] | Chlorpyrifos TUs [TUs] | TUs by ELISA [TUs] | actual toxicity due to the chemical (TUs) | Diazinon TUs [TUs] | Actual Sample TUs / Sample TUs after treatment | Residual TUs (after PB Treatment) [TUs]
CCOP(=S)(OCC)Oc1nc(Cl)c(Cl)cc1Cl [Chlorpyrifos, chlorpyrifos] | 0.08 (≈ 0.228 nM) | 2.2 | 3.2 | 0.5 |  |  | 
CCOP(=S)(OCC)Oc1cc(C)nc(C(C)C)n1 [Diazinon, diazinon] | 0.38 (≈ 1.25 nM) |  | 1.9 | 0.9 | 4.5 |  | 
CCCCOCCOCCOCc1cc2c(cc1CCC)OCO2 [PB, piperonyl butoxide] |  |  |  |  |  | ~ 1.0 TUs | 1.0
